The text below walks through data of article PMC11609934, “Exploration and characterization of the antimalarial activity of cyclopropyl carboxamides that target the mitochondrial protein, cytochrome b” (European Journal of Medicinal Chemistry, 2024).

Where two headings read alike, the source gives them in different places.

Data set [1] concerns W499-resistant populations. Put plainly: microbe, parasite or virus in culture. The data set is classed as cell-based, Plasmodium falciparum. Particulars: for EC50: Plasmodium falciparum. An excerpt:
To confirm if W466 (1) and W499 (2) may have the same molecular target, W466 (1) and W499 (2) were each evaluated for cross resistance against their respective resistant populations from the pulsed forward genetic study (Fig. 2).

The subject of a further data set is mitochondrial ETC. Put plainly: P. falciparum oxygen consumption rate (OCR) assay (Seahorse XFe96). The data set is classed as cell-based, Plasmodium falciparum. Particulars: compounds 5 μM. As to the method:
To provide further evidence to support the cyclopropyl carboxamide series targeting cyt b, an oxygen consumption rate (OCR) assay was performed using a Seahorse XFe96 Flux Analyzer. The primary role of the mitochondria ETC is to produce ATP oxidative phosphorylation, and thus the oxygen consumption directly quantifies mitochondrial ETC activity. In this assay, malate, which is a substrate of malate quinone dehydrogenase (MQD), was added to provide a base line of oxygen consumption at approximately 50 pmol/min (Fig. 4). […] Finally, NaN3 was added to inhibit complex IV to bring the OCR back to basal levels.
Fig. 4 P. falciparum oxygen consumption rate (OCR) assay. Data represent the means and SDs of 3 technical replicates. Time points and reagent injections were as follows, 1. First 5 timepoints measured the basal level of malate-dependent OCR; 2. Compounds (5 μM) were injected independently (indicated by arrow), and OCR measured for 8-timepoints; 3. TMPD (a cytochrome c electron donor) was injected, and OCR measured for 5 time points; 4. NaN3 (a complex IV inhibitor) was then added, and OCR measured for 5 time points.
ETC Biosensor Assay. This assay was performed as previously described. Briefly, 3 × 10^8 trophozoite infected RBCs were purified using the SuperMACS II separator (Miltenyi Biotec, Germany). The trophozoite-stage parasites were released from erythrocytes by treating them with 0.05 % (w/v) pre-warmed saponin in phosphate-buffered saline (PBS) at 37 °C for 3 min. The cells were washed with pre-warmed PBS, three times. […] The cells were measured for oxygen consumption rate (OCR) using Seahorse XFe96 flux analyzer (Agilent). The OCR was assessed for five cycles of 20 s mixing, 1 min waiting, 2.5 min measuring to establish baseline OCR before any substrate injections, for eight cycles of 20 s mixing, 1 min waiting followed by 2.5 min measuring after inhibitor injection from port A and for five cycles of 20 s mixing 1 min waiting, 2.5 min measuring after TMPD, and NaN3, injections.

A further data set concerns Dd2-B2. Nature of the data set: 72 h SYBR Green I / MitoTracker flow cytometry assay, Dd2-B2. The data set is classed as cell-based. The conditions noted are these: Plasmodium falciparum, DD2, 72 h. The method, then: MIR assay.Plasmodium falciparum asexual blood stage (ABS) parasites were cultured at 3 % hematocrit in human O^+ RBCs in RPMI-1640 media, supplemented with 25 mM HEPES, 50 mg/L hypoxanthine, 2 mM L-glutamine, 0.21 % sodium bicarbonate, 0.5 % (wt/vol) AlbuMAXII (Invitrogen) and 10 μg/mL gentamycin, in modular incubator chambers (Billups- Rothenberg) at 5 % O2, 5 % CO2 and 90 % N2 at 37 °C. Dd2 parasites were obtained from T. Wellems (NIAID, NIH). Dd2-B2 is a genetically homogenous line that was cloned from Dd2 by limiting dilution in the Fidock lab. Dd2-Polδ is a line edited in the Fidock Lab to have a hypermutable polymerase. […] Parasite survival was assessed by flow cytometry on an iQue flow cytometer (Sartorius) using SYBR Green and MitoTracker Deep Red FM (Life Technologies) as nuclear stain and vital dyes respectively.
For orientation: A flow cytometer gives signals particle by particle.

For data set [2], the system named is P. berghei ANKA parasites. Put plainly: P. berghei 4-day mouse model. The data set is classed as in vivo, Plasmodium berghei. The method, then:
The 4-day P. berghei mouse model is used to determine the preliminary in vivo efficacy of antimalarials at an early stage of optimization. To determine if cyclopropyl carboxamide series could reduce asexual blood stage infection, we evaluated representative compounds WJM280 (108) and analog 109 in the 4-day P. berghei mouse model. In this model, mice were infected P. berghei asexual stage parasites, and then 2 h after the infection, WJM280 (108) and analog 109 at 50 mg/kg and artesunate at 30 mg/kg were administered by oral gavage. The same compound doses were administered again, 24, 48, and 72 h post infection. Parasitemia was then quantified by preparing blood smears and visualizing by microscopy across days 2, 3, and 4. […] The inability of these compounds to reduce parasitemia was attributed to their high metabolic turnover, which is a characteristic that needs improving on further development of the cyclopropyl carboxamide class.
P. berghei 4-day Mouse Model. This model was conducted as previously described.

For the compound `O=C(NC1CC1)c1ccc(CN(Cc2ccc(Cl)cc2Cl)C2CC2)cc1` [W499 (2)], the “fold shift in EC50 against W499-resistant populations compared to wildtype 3D7” value in data set [1] is listed as 1.6–1.9 fold. The figures for the EC50 in data set [1] (read-out: W499-resistant population #2 EC50) and in data set [1] (read-out: W499-resistant population #3 EC50) were 206 nM and 177 nM, respectively. In addition, the “effect on malate-dependent oxygen consumption rate (OCR)” value in the data set on mitochondrial ETC was “reduced the OCR to the same level as ATQ”. Further, the IC50 in the data set on Dd2-B2 (read-out: IC50 Dd2-B2) came out at 112 nM. In addition, the IC90 in the data set with Dd2-B2 (read-out: IC90 Dd2-B2) amounted to 224 nM.

`CCCN(Cc1ccc(C(=O)NC2CC2)cc1)Cc1ccc(C(F)(F)F)cc1` [WJM280 (108), N-Cyclopropyl-4-((propyl(4-(trifluoromethyl)benzyl)amino)methyl)benzamide]: in data set [2] (50 mg/kg q.d. oral, 4 days), the “body weights of mice” value was “remained unchanged”. Moreover, in data set [2] (mice, day 4, oral gavage q.d. x4, 50 mg/kg (ART 30 mg/kg)), the “% parasitemia” value is recorded as 81%. The “% reduction in parasitemia” value in data set [2] (versus vehicle control, mice, day 4, oral gavage q.d. x4, 50 mg/kg (ART 30 mg/kg)) was 19%.

Usually EC50 stands for the concentration at which the effect is half-maximal. The term IC50 denotes the concentration that gives 50% inhibition. A word on the IC90: it is the concentration needed for an effect of 90%.
